The record followed here is patent publication US12398118B2, “Rho-associated protein kinase inhibitor, pharmaceutical composition comprising same, and use thereof” (BEIJING TIDE PHARMACEUTICAL CO., LTD., priority 2018, dated 2025).

One experiment addresses ROCK2 (Homo sapiens, UniProt O75116). Kind of experiment: ROCK2 kinase IC50, HTRF KinEASE-STK S2 kit. Format: biochemical. The conditions noted are these: 2 hours at room temperature. As for the experimental part:
(§1) The kinase IC50 was determined by a commercialized CISBIO kinase detection kit, HTRF KinEASE-STK S2 kit (62ST2PEC). ROCK2 (01-119) employed in the reaction was purchased from Carna Biosciences.
(§2) Before the assay, the following working solutions as needed were formulated with corresponding reagents according to the instruction of the kinase detection kit: 1×kinase buffer, 5×STK-S2 substrate working solution (1.5 μM) and 5×ATP working solution (1.5 μM), 5×ROCK2 kinase working solution, 4×Streptavidin-XL665 working solution, and 4×STK-Ab-Cryptate 2 detection solution. Then the assay was performed according to the following procedure.
(§3) A solution of a compound at a concentration of 10000 nM was prepared with the 1×kinase buffer containing 2.5% DMSO. Gradient dilution of the solution of the compound was performed with the kinase buffer containing DMSO, so as to obtain solutions of a test compound at 9 different concentrations. In addition to wells of test compounds, a positive well (containing all the reagents except the compound) and a negative well (containing all the reagents except the test compound and kinase) were set. Except for the control wells (positive and negative wells), a solution of a test compound (4 μL) was added to each of the reaction wells, and a solution of 2.5% DMSO was added to the control wells. Then the substrate (2 μM, i.e., 2 μL 5×STK-S2 substrate working solution) was added to each of the reaction wells. The 5×ROCK2 kinase working solution (2 μL, containing 1.4 ng ROCK2 kinase) was added to each of the reaction wells except for the negative well, the volume of which was made up with the 1×kinase buffer (2 μL). The 5×ATP working solution (2 μL) was added to each of the reaction wells, and the mixtures were incubated at room temperature for 2 hours. After the kinase reaction was complete, the 4×Streptavidin-XL665 working solution was added to each of the reaction wells, the solutions were mixed, followed by immediate addition of the 4×STK-Ab-Cryptate 2 detection solution (5 μL), and the mixtures were incubated at room temperature for 1 hour. The fluorescence signal was read on ENVISION (Perkinelmer) (excitation wavelength: 320 inn, and emission wavelength: 665 nm and 615 nm). The inhibitory rate in each well was calculated based on the fluorescence intensity value: ER (Emission Ratio)_(fluorescence intensity at 665 nm/fluorescence intensity at 615 nm); inhibitory rate=(ERpositive−ERtest compound)/(ERpositive−ERnegative)*100%. Curves were plotted and fitted to obtain the median inhibitory concentration (IC50) of each teat compound with the PRISM 5.0 software. According to a biological test method similar to the above, the IC50 values of the compounds on ROCK1 were also tested.

A further experiment addresses ROCK1 (Homo sapiens (Human), UniProt Q13464). Kind of experiment: ROCK1 kinase IC50, biological test method similar to ROCK2 assay. Format: biochemical. As for the experimental part:
as §1, §2, §3

Chain of ROCK2 (O75116 whole entry, looked up): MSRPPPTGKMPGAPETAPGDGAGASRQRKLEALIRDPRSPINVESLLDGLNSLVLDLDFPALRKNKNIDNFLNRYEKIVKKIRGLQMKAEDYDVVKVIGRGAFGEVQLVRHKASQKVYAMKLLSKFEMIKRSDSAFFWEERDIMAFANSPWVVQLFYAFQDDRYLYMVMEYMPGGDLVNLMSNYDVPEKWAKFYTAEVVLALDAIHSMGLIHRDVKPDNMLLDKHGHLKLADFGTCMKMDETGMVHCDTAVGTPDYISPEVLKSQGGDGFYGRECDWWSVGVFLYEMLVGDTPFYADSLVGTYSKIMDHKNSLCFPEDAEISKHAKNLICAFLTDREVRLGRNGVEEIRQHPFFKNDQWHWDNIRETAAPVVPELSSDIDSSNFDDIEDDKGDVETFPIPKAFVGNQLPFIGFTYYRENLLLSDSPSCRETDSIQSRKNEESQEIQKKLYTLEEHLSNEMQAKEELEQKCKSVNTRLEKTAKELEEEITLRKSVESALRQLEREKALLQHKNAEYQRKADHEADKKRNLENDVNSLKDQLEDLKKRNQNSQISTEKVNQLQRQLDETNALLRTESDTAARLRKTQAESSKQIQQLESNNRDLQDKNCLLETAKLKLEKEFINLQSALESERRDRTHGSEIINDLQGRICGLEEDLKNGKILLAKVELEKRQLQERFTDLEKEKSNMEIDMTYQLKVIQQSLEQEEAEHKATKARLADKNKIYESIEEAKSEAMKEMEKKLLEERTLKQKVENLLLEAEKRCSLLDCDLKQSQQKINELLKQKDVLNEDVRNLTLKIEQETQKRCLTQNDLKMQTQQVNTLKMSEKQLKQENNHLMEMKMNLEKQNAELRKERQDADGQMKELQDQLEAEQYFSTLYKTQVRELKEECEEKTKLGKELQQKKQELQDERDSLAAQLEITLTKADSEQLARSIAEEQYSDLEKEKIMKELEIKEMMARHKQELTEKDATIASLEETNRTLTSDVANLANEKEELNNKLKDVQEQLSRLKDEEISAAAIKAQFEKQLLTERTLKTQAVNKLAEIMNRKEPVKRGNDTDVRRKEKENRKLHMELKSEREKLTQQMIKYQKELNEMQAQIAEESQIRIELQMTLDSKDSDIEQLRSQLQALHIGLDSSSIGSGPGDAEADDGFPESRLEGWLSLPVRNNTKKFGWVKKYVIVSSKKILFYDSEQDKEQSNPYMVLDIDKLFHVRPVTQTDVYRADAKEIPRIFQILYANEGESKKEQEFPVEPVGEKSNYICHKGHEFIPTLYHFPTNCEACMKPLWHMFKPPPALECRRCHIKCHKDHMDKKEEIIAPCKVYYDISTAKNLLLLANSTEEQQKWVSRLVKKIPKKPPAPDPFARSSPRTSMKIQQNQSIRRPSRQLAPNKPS
Chain of ROCK1 (Q13464 whole entry, species assumed): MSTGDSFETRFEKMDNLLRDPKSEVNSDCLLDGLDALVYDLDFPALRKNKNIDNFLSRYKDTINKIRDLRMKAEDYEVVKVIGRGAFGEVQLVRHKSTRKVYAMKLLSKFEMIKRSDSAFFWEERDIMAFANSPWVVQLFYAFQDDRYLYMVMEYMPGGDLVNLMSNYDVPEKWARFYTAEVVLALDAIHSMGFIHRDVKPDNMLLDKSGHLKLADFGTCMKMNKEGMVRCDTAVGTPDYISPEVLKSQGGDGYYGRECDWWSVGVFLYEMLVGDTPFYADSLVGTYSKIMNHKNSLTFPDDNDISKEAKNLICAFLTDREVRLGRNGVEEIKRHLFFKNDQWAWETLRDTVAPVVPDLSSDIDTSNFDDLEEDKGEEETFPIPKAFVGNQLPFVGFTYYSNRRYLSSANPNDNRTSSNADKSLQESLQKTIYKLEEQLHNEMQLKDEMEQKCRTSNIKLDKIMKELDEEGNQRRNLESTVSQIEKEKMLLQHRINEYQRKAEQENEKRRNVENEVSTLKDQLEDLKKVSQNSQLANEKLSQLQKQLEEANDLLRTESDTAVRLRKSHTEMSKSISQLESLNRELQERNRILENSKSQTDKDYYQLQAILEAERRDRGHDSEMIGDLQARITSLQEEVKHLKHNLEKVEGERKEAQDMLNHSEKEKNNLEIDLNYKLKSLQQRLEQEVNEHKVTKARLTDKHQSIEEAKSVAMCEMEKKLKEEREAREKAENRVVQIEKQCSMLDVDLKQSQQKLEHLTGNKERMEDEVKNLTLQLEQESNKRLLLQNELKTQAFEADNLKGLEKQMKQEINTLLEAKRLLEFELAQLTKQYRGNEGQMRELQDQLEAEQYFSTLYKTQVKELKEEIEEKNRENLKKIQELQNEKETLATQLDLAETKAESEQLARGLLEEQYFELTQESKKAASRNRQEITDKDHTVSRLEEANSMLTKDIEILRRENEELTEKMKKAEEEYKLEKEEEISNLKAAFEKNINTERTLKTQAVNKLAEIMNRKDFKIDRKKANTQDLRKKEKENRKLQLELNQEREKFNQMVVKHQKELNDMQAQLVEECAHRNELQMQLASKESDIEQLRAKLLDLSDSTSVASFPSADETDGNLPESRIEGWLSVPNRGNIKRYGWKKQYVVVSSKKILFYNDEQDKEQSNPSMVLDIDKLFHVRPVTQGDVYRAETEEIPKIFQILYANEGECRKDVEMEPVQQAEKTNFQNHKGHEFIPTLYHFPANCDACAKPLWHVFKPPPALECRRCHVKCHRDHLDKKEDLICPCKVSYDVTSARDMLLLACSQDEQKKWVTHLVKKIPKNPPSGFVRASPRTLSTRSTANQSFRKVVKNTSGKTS

For `O=C1NCCc2cc(Nc3nc(-c4cc5c(s4)CCN(C(=O)OC(C(F)(F)F)C(F)(F)F)C5)ncc3F)ccc21` [C61, 1,1,1,3,3,3-hexafluoropropan-2-yl 2-(5-fluoro-4-((1-oxo-1,2,3,4-tetrahydroisoquinolin-6-yl)amino)pyrimidin-2-yl)-6,7-dihydrothieno[3,2-c]pyridine-5(4H)-carboxylate], the IC50 against ROCK2 was 0.17 µM; at ROCK1, more than 10 µM.

Take `O=C(N1Cc2ccc(-c3ncc(F)c(Nc4ccc5c(=O)[nH]ccc5c4)n3)cc2C1)C(F)(F)F` [C62]: the concentration for half-maximal inhibition (IC50) against ROCK2 is 0.139 µM; against ROCK1, more than 10 µM.

For the compound `O=C(CCC(F)(F)F)N1Cc2ccc(-c3ncc(F)c(Nc4ccc5c(=O)[nH]ccc5c4)n3)cc2C1` [C63, 6-((5-fluoro-2-(2-(4,4,4-trifluoro-butanoyl)isoindolin-5-yl)pyrimidin-4-yl)amino) isoquinolin-1(2H)-one], the IC50 against ROCK2 is 0.024 µM; on ROCK1, more than 10 µM.

Regarding `O=C1NCCc2cc(Nc3nc(-c4ccc5c(c4)CN(C(=O)CCC(F)(F)F)C5)ncc3F)ccc21` [C64, 6-((5-fluoro-2-(2-(4,4,4-trifluoro-butanoyl)isoindolin-5-yl)pyrimidin-4-yl)amino)-3,4-dihydro-isoquinolin-1(2H)-one], the 50% inhibitory concentration (IC50) against ROCK2 was 0.109 µM; on ROCK1, more than 10 µM.

Regarding `C[C@@H](OC(=O)N1CCc2sc(-c3ncc(F)c(Nc4ccc5c(c4)CCNC5=O)n3)cc2C1)C(F)(F)F` [C65, (R)-1,1,1-trifluoropropan-2-yl 2-(5-fluoro-4-((1-oxo-1,2,3,4-tetrahydroisoquinolin-6-yl)amino)pyrimidin-2-yl)-6,7-dihydrothieno[3,2-c]pyridine-5(4H)-carboxylate], the IC50 at ROCK2 is 0.08 µM; against ROCK1, more than 10 µM.

Turning to `CC(OC(=O)N1Cc2ccc(-c3ncc(F)c(Nc4ccc5c(c4)CCNC5=O)n3)cc2C1)C(F)(F)F` (stereo not drawn) [C66, 1,1,1-trifluoro-propan-2-yl 5-(5-fluoro-4-((1-oxo-1,2,3,4-tetrahydro-isoquinolin-6-yl)amino)pyrimidin-2-yl) isoindolin-2-carboxylate], the IC50 was 0.082 µM against ROCK2 and more than 10 µM on ROCK1.

Consider `CC(CC(=O)N1Cc2ccc(-c3ncc(F)c(Nc4ccc5c(c4)CCNC5=O)n3)cc2C1)C(F)(F)F` (stereo not drawn) [C67, 6-((5-fluoro-2-(2-(4,4,4-trifluoro-3-methyl-butanoyl)isoindolin-5-yl)pyrimidin-4-yl)amino)-3,4-dihydro-isoquinolin-1(2H)-one], for which the IC50 at ROCK2 was 0.101 µM; against ROCK1 it was more than 10 µM.

For the compound `O=C(CCC(F)(F)F)N1CCc2sc(-c3ncc(F)c(Nc4ccc5c(=O)[nH]ccc5c4)n3)cc2C1` [C68, 6-((5-fluoro-2-(5-(4,4,4-trifluorobutanoyl)-4,5,6,7-tetrahydrothieno[3,2-c]pyridin-2-yl)pyrimidin-4-yl)amino)isoquinolin-1(2H)-one], the concentration for half-maximal inhibition (IC50) at ROCK2 is 0.009 µM; against ROCK1, more than 10 µM.

For `O=C1NCCc2cc(Nc3nc(-c4cc5c(s4)CCN(C(=O)CCC(F)(F)F)C5)ncc3F)ccc21` [C69, 6-((5-fluoro-2-(5-(4,4,4-trifluorobutanoyl)-4,5,6,7-tetrahydrothieno[3,2-c]pyridin-2-yl)pyrimidin-4-yl)amino)-3,4-dihydroisoquinolin-1(2H)-one], the half-inhibitory concentration (IC50) on ROCK2 was 0.045 µM; against ROCK1, more than 10 µM.

As for `O=C(CCC(F)(F)F)N1CCc2cc(-c3ncc(F)c(Nc4ccc5c(=O)[nH]ccc5c4)n3)ccc21` [C70, 6-((5-fluoro-2-(1-(4,4,4-trifluoro-butanoyl)indolin-5-yl)pyrimidin-4-yl)amino) isoquinolin-1(2H)-one], the IC50 was 0.015 µM against ROCK2 and more than 10 µM on ROCK1.

Regarding `CC(CC(=O)N1CCc2cc(-c3ncc(F)c(Nc4ccc5c(=O)[nH]ccc5c4)n3)ccc21)C(F)(F)F` (stereo not drawn) [C71, 6-((5-fluoro-2-(1-(4,4,4-trifluoro-3-methyl-butanoyl)indolin-5-yl)pyrimidin-4-yl)amino) isoquinolin-1(2H)-one], the values for the IC50 on ROCK2 and on ROCK1 were 0.025 µM and more than 10 µM, respectively.

As for `CC(OC(=O)N1CCc2cc(-c3ncc(F)c(Nc4ccc5c(=O)[nH]ccc5c4)n3)ccc21)C(F)(F)F` (stereo not drawn) [C73, 1,1,1-trifluoro-propan-2-yl 5-(5-fluoro-4-((1-oxo-1,2-dihydro-isoquinolin-6-yl)amino)pyrimidin-2-yl) indoline-1-carboxylate], the IC50 on ROCK2 was 0.078 µM; on ROCK1 it was more than 10 µM.

As for `CC(CC(=O)N1CCc2cc(-c3ncc(F)c(Nc4ccc5c(c4)CCNC5=O)n3)ccc21)C(F)(F)F` (stereo not drawn) [C74, 6-((5-fluoro-2-(1-(4,4,4-trifluoro-3-methyl-butanoyl)indolin-5-yl)pyrimidin-4-yl)amino)-3,4-dihydro-isoquinolin-1(2H)-one], the IC50 was 0.054 µM against ROCK2 and more than 10 µM at ROCK1.

With `CC(C)(C)OC(=O)N1Cc2ccc(-c3ncc(F)c(Nc4ccc5c(c4)CCNC5=O)n3)cc2C1` [C76, tert-butyl 5-(5-fluoro-4-((1-oxo-1,2,3,4-tetrahydro-isoquinolin-6-yl)amino)pyrimidin-2-yl) isoindoline-2-carboxylate], the concentration for half-maximal inhibition (IC50) is 0.049 µM on ROCK2 and more than 10 µM on ROCK1.

Consider `CN(CC(F)(F)F)C(=O)N1Cc2ccc(-c3ncc(F)c(Nc4ccc5c(c4)CCNC5=O)n3)cc2C1` [C78, 5-(5-fluoro-4-((1-oxo-1,2,3,4-tetrahydro-isoquinolin-6-yl)amino)pyrimidin-2-yl)-N-methyl-N-(2,2,2-trifluoro-ethyl) isoindoline-2-carboxylate], for which the values for the IC50 against ROCK2 and against ROCK1 were 0.04 µM and more than 10 µM, respectively.

For the compound `O=C(N1Cc2ccc(-c3ncc(F)c(Nc4ccc5c(=O)[nH]ccc5c4)n3)cc2C1)N1CC(F)(F)C1` [C79, 6-((2-(2-(3,3-difluoro-azetidine-1-carbonyl)isoindolin-5-yl)-5-fluoro-pyrimidin-4-yl)amino) isoquinolin-1(2H)-one], the IC50 was 0.046 µM against ROCK2 and more than 10 µM at ROCK1.

`O=C1NCCc2cc(Nc3nc(-c4ccc5c(c4)CN(C(=O)N4CC(F)(F)C4)C5)ncc3F)ccc21` [C81, 6-((2-(2-(3,3-difluoro-azetidine-1-carbonyl)isoindolin-5-yl)-5-fluoro-pyrimidin-4-yl)amino)-3,4-dihydro-isoquinolin-1(2H)-one]: the concentration for half-maximal inhibition (IC50) at ROCK2 is 0.129 µM; on ROCK1 it was more than 10 µM.

For the compound `CC(C)(CC(=O)N1Cc2ccc(-c3ncc(F)c(Nc4ccc5c(c4)CCNC5=O)n3)cc2C1)C(F)(F)F` [C82, 6-((5-fluoro-2-(2-(4,4,4-trifluoro-3,3-dimethyl-butanoyl)isoindolin-5-yl)pyrimidin-4-yl)amino)-3,4-dihydro-isoquinolin-1(2H)-one], the IC50 on ROCK2 was 0.129 µM; against ROCK1 it was more than 10 µM.

Broadly, the IC50 is the concentration that gives 50% inhibition. Higher therefore signals a need for much substance.
